Reference: US20090088380A1, “GHRH ANALOGS AND THERAPEUTIC USES THEREOF” (priority 2007, published 2009)
Like-named read-outs stand apart in the source and are kept apart here. Non-standard residues stand in square brackets, D forms with d. Residues, ends and D or L forms follow the SMILES beside them. No end group written: not given here.

Experiments:
[1] = target: T1, hGHRH(1-44)-NH2 binding sites in rat anterior pituitary (Rattus norvegicus, UniProt Q02644); test: Relative binding affinity in rat anterior pituitary preparations, [125I-Tyr10]hGHRH(1-44)-NH2 radioligand; details: values compared to hGHRH(1-29)-NH2
T1 construct: from tissue; host or cells: anterior pituitary of 2-month old male Sprague Dawley rats
T1 sequence (Q02644 23-423 isoform Q02644-2 limits assumed): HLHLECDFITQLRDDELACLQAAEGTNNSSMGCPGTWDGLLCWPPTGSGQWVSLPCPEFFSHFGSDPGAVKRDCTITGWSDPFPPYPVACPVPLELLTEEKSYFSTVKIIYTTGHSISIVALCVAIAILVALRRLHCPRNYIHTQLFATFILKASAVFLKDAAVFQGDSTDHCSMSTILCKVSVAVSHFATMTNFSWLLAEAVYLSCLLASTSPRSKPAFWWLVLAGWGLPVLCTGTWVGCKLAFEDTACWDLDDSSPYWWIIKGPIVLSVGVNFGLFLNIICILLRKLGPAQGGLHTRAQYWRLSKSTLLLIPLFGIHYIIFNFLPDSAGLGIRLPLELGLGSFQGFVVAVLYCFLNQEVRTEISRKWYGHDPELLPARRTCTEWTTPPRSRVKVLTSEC
Excerpt: Initial selection of a candidate from the original 14 polysubstituted GHRH analogs described in the U.S. Pat. No. 5,854,216 was based upon in vitro data on receptor affinity in 2-month old male Sprague Dawley rat anterior pituitary preparations. The embodiments are based on the affinity of selected GHRH analogs for the human GHRH receptor (hGHRH-R) in baby hamster kidney (BHK) cells transfected with hGHRH-R, and on resistance to proteolysis in rat serum, human plasma or human serum. More precisely, the preferred drug candidates were selected, as compared to hGHRH(1-29)-NH2, for: i-their increased relative binding affinity to hGHRH(1-44)-NH2 binding sites in rat anterior pituitary in vitro as well as to hGHRH-R in BHK-expressing cells in vitro; and ii-their relative resistance to proteolysis in vitro.

[2] = In vitro proteolysis assay in rat serum; type: in vitro ADME; details: for Relative resistance to proteolysis in vitro: compared to hGHRH(1-29)-NH2; for Residual concentration (% of initial concentration): incubation 0 min
Experimental: Proteolysis was stopped by adding 800 μl of ice-cold stop buffer (potassium-phosphate buffer, acidified to pH 0.8 with trifluoroacetic acid (TFA) and boiling 5 min (rat serum only). After centrifugation (12000 g, 5 min, 4° C.) (rat serum only), serum-peptide mixtures were passed through a conditioned Sep-Pak C-18 cartridge to extract native GHRH or a GHRH analog residual concentrations from serum proteins. The native GHRH or the analog was eluted in 2 ml of 50% acetonitrile-0.01% TFA/50% 0.01% aqueous TFA. 200 μl of extracted peptide, representing 1 μg of GHRH or analog at time 0, was quantified by analytical HPLC, using one μ-Bondapak C18 column (10 μm particle size, 0.39×15 cm) (rat serum) or two C18 columns in series (human serum and plasma) and a binary solvent system composed of NaClO4 0.01 M, pH 2.5 and acetonitrile. A linear gradient from 30 to 60% acetonitrile over 45 min (rat serum) or 30 to 50% (human serum and plasma) was used. Elution of intact peptide was monitored at 214 nm and residual concentration determined by assessment of peak surface areas.

human GHRH receptor = target: T2, human GHRH receptor (Homo sapiens, UniProt Q02643); test: 125I-GHRH competitive binding assay in BHK cell membrane preparations; details: in comparison with hGHRH(1-29)NH2; ratio IC50 hGHRH(1-29)-NH2/IC50 analog
T2 construct: expressed in transfected cells; host or cells: BHK (baby hamster kidney) 570 cells, membrane preparations
T2 sequence (Q02643 23-423): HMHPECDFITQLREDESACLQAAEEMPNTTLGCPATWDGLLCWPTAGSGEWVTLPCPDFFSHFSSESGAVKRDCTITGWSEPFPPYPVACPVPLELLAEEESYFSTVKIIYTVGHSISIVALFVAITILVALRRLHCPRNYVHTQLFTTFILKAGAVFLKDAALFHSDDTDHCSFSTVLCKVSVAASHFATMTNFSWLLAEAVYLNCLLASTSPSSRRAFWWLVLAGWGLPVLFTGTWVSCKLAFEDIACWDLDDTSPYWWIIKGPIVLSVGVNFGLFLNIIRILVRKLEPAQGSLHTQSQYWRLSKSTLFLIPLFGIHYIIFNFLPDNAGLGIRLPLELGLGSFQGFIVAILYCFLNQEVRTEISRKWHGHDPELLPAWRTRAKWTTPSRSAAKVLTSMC
Experimental: Non specific binding was determined in presence of 1 μM hGHRH(1-29)NH2. Incubation was carried out at equilibrium (23° C., 60 min) and stopped by centrifugation (12,000 g, 5 min, at 4° C.). The radioactivity content in pellets was determined by gamma counting. The affinity of hGHRH(1-29) NH2 was tested in each experiment to assess the validity of the assay and determine the relative affinity of the analogs.
Values represent the mean±SEM of 3 experiments performed in triplicate for the analogs and the mean±SEM of 2 experiments performed in triplicate for hGHRH(1-44) NH2.
For the binding assay results presented in Tables 8 to 11, values represent the mean±SEM of 8 independent experiments performed in triplicate for the analogs and the mean±SEM of 4 experiments performed in triplicate for hGHRH(1-29)NH2. […] The relative affinity was obtained by taking the ratio IC50 of hGHRH (1-29)-NH2/IC50 analog.

rat GHRH receptor (rat) = rat GHRH receptor (rat) (UniProt Q02644); test: competition with [125I-Tyr10]hGHRH(1-44)-NH2, rat anterior pituitary membrane preparations
[3] = target: human GHRH receptor (human) (UniProt Q02643); test: competition with [125I-Tyr10]hGHRH(1-44)NH2, BHK cell membrane preparations expressing the human GHRH receptor
[4] = target: human GHRH receptor (human) (UniProt Q02643); test: as above; remark: listed apart in the source

Compound | Relative binding affinity in rat anterior pituitary [1] | Relative resistance to proteolysis in vitro [2] | Residual concentration (% of initial concentration) [2] | Relative binding affinity (R1) in hGHRH-R BHK-expressing cells (human GHRH receptor) | Relative binding affinity in rat anterior pituitary (relative to hGHRH(1-29)-NH2) (rat GHRH receptor (rat)) | IC50 [3] | IC50 [4] | Relative binding affinity (R1) in comparison with hGHRH(1-29)NH2 ([4]; scale: ratio IC50 of hGHRH)
CC[C@H](C)[C@H](NC(=O)[C@H](C)NC(=O)[C@H](CC(=O)O)NC(=O)[C@@H](C)NC(=O)[C@@H](N)Cc1ccc(O)cc1)C(=O)N[C@@H](Cc1ccccc1)C(=O)N[C@H](C(=O)N[C@@H](C)C(=O)N[C@@H](CO)C(=O)N[C@@H](Cc1ccc(O)cc1)C(=O)N[C@@H](CCCNC(=N)N)C(=O)N[C@@H](CCCCN)C(=O)N[C@H](C(=O)N[C@@H](CC(C)C)C(=O)N[C@@H](C)C(=O)N[C@@H](CCC(N)=O)C(=O)N[C@@H](CC(C)C)C(=O)N[C@@H](CO)C(=O)N[C@@H](C)C(=O)N[C@@H](CCCNC(=N)N)C(=O)N[C@@H](CCCCN)C(=O)N[C@@H](CCCCN)C(=O)N[C@@H](CC(C)C)C(=O)N[C@@H](CCC(N)=O)C(=O)N[C@@H](CC(=O)O)C(=O)N[C@H](C(=O)N[C@@H](CCSC)C(=O)N[C@@H](CO)C(=O)N[C@@H](CCCNC(=N)N)C(N)=O)[C@@H](C)CC)C(C)C)[C@@H](C)O [GHRH analog #1, [D-Ala^2, Ala^8, Ala^15, Lys^22] hGHRH(1-29)-NH2] (H-Y[dA]DAIFTASYRKVLAQLSARKKLQDIMSR-NH2; N-terminus assumed) | 13.33 ± 0.31 | 1.87 | 100 ± 0 % of initial concentration | 499 ± 234 |  |  |  | 
CC[C@H](C)[C@H](NC(=O)[C@H](C)NC(=O)[C@H](CC(=O)O)NC(=O)[C@@H](C)NC(=O)[C@@H](N)Cc1ccc(O)cc1)C(=O)N[C@@H](Cc1ccccc1)C(=O)N[C@H](C(=O)N[C@@H](CC(N)=O)C(=O)N[C@@H](CO)C(=O)N[C@H](Cc1ccc(O)cc1)C(=O)N[C@@H](CCCNC(=N)N)C(=O)N[C@@H](CCCCN)C(=O)N[C@H](C(=O)N[C@@H](CC(C)C)C(=O)NCC(=O)N[C@@H](CCC(N)=O)C(=O)N[C@@H](CC(C)C)C(=O)N[C@@H](CO)C(=O)N[C@@H](C)C(=O)N[C@@H](CCCNC(=N)N)C(=O)N[C@@H](CCCCN)C(=O)N[C@@H](CCCCN)C(=O)N[C@@H](CC(C)C)C(=O)N[C@@H](CCC(N)=O)C(=O)N[C@@H](CC(=O)O)C(=O)N[C@H](C(=O)N[C@@H](CCSC)C(=O)N[C@@H](CO)C(=O)N[C@@H](CCCNC(=N)N)C(N)=O)[C@@H](C)CC)C(C)C)[C@@H](C)O [GHRH analog #3, [D-Ala^2, D-Tyr^10, Lys^22] hGHRH(1-29)-NH2] (H-Y[dA]DAIFTNS[dY]RKVLGQLSARKKLQDIMSR-NH2; N-terminus assumed) | 4.90 ± 2.70 | 2.25 | 100 ± 0 % of initial concentration | 239 ± 55 |  |  |  | 
CC[C@H](C)[C@H](NC(=O)[C@H](C)NC(=O)[C@H](CC(=O)O)NC(=O)[C@@H](C)NC(=O)[C@@H](N)Cc1ccc(O)cc1)C(=O)N[C@@H](Cc1ccccc1)C(=O)N[C@H](C(=O)N[C@@H](C)C(=O)N[C@@H](CO)C(=O)N[C@H](Cc1ccc(O)cc1)C(=O)N[C@@H](CCCNC(=N)N)C(=O)N[C@@H](CCCCN)C(=O)N[C@H](C(=O)N[C@@H](CC(C)C)C(=O)N[C@@H](C)C(=O)N[C@@H](CCC(N)=O)C(=O)N[C@@H](CC(C)C)C(=O)N[C@@H](CO)C(=O)N[C@@H](C)C(=O)N[C@@H](CCCNC(=N)N)C(=O)N[C@H](CCCCN)C(=O)N[C@@H](CCCCN)C(=O)N[C@@H](CC(C)C)C(=O)N[C@@H](CCC(N)=O)C(=O)N[C@@H](CC(=O)O)C(=O)N[C@H](C(=O)N[C@@H](CCSC)C(=O)N[C@@H](CO)C(=O)N[C@@H](CCCNC(=N)N)C(N)=O)[C@@H](C)CC)C(C)C)[C@@H](C)O [GHRH analog #4, [D-Ala^2, Ala^8, D-Tyr^10, Ala^15, D-Lys^21, Lys^22] hGHRH(1-29)-NH2] (H-Y[dA]DAIFTAS[dY]RKVLAQLSAR[dK]KLQDIMSR-NH2; N-terminus assumed) | 5.00 ± 0.91 | 6.06 | 100 ± 0 % of initial concentration | 0.05 ± 0.01 |  |  |  | 
YADAIFTAAYRKVLAQLSARKALQDIMSR-NH2 [GHRH analog #2, [Ala^8, Ala^9, Ala^15, Ala^22] hGHRH(1-29)-NH2] | 7.74 ± 3.49 | 1.81 | 100 ± 0 % of initial concentration | 3.70 ± 0.52 |  |  |  | 
[D-Ala2, D-Tyr10, D-Ala15, Lys22] hGHRH(1-29)-NH2 (peptide) |  |  |  |  | 1.04 | 1.2 pM | 6 pM | 939
